Tests used:
PIK3CB (Human) = PIK3CB (Human) (UniProt P42338); assay: Inhibition of PIK3CB Kinase Activity
PIK3CG (human) = PIK3CG (human) (UniProt P48736); assay: Inhibition of PIK3CG Kinase Activity
PIK3CD (Human) = PIK3CD (Human) (UniProt O00329); assay: Inhibition of PIK3CD Kinase Activity
PIK3CA (human) = PIK3CA (human) (UniProt P42336); assay: Inhibition of PIK3CA Kinase Activity

Measured: IC50

Sequence of PIK3CB (Human) (P42338 whole entry, looked up): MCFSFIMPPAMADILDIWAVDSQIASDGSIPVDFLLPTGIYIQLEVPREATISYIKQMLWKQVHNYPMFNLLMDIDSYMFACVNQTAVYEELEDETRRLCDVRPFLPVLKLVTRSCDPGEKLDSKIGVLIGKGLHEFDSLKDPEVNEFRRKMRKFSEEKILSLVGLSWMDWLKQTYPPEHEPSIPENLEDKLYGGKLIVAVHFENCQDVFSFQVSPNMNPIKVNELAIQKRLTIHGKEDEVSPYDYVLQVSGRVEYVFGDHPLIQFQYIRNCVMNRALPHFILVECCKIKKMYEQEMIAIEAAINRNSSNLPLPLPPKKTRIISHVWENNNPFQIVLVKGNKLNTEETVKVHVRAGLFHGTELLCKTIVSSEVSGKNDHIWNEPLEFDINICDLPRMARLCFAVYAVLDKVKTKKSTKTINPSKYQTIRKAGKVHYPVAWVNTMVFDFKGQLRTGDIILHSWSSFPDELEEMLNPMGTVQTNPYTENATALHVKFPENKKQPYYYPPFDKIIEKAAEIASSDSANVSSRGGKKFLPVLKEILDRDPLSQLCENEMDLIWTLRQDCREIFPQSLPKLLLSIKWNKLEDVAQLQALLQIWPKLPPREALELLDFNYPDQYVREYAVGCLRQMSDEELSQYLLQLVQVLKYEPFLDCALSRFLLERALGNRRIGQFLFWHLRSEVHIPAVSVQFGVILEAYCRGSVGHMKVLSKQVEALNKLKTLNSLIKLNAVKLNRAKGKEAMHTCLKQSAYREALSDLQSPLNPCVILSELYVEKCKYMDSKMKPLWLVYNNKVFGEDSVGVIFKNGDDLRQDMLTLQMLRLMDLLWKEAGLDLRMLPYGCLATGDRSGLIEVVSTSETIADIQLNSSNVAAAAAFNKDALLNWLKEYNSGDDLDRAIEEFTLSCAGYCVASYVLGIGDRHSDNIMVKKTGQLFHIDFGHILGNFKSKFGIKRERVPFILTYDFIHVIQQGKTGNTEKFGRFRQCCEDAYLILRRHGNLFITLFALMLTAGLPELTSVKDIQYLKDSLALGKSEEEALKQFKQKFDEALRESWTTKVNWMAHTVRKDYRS
Sequence of PIK3CD (Human) (O00329 whole entry, looked up): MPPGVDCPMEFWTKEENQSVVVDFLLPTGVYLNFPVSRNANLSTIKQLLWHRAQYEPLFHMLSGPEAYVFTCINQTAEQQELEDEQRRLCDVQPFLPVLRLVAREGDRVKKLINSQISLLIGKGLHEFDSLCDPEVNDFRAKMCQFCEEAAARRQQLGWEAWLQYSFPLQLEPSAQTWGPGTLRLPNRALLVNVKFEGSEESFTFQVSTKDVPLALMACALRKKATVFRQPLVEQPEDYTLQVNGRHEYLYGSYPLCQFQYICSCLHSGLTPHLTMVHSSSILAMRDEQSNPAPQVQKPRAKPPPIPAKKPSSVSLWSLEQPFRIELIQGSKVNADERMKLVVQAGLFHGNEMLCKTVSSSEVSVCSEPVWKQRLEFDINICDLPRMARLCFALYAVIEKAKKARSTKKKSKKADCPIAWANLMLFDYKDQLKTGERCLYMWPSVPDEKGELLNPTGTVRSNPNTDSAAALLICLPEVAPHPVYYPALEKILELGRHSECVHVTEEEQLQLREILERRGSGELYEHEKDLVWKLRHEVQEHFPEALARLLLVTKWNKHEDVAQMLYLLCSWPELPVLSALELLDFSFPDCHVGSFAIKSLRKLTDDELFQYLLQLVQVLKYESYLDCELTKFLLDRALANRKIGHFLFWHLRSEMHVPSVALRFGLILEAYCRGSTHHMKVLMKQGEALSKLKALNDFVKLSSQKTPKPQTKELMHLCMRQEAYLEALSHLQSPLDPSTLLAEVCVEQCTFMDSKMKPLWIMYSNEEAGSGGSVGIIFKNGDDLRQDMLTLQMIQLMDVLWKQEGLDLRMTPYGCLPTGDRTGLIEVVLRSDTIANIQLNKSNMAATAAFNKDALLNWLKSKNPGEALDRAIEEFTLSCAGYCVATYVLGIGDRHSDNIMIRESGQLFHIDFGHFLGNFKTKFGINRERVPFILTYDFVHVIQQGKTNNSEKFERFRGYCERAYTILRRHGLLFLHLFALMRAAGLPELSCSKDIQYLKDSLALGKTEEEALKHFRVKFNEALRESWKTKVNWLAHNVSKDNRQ
Sequence of PIK3CG (human) (P48736 whole entry, looked up): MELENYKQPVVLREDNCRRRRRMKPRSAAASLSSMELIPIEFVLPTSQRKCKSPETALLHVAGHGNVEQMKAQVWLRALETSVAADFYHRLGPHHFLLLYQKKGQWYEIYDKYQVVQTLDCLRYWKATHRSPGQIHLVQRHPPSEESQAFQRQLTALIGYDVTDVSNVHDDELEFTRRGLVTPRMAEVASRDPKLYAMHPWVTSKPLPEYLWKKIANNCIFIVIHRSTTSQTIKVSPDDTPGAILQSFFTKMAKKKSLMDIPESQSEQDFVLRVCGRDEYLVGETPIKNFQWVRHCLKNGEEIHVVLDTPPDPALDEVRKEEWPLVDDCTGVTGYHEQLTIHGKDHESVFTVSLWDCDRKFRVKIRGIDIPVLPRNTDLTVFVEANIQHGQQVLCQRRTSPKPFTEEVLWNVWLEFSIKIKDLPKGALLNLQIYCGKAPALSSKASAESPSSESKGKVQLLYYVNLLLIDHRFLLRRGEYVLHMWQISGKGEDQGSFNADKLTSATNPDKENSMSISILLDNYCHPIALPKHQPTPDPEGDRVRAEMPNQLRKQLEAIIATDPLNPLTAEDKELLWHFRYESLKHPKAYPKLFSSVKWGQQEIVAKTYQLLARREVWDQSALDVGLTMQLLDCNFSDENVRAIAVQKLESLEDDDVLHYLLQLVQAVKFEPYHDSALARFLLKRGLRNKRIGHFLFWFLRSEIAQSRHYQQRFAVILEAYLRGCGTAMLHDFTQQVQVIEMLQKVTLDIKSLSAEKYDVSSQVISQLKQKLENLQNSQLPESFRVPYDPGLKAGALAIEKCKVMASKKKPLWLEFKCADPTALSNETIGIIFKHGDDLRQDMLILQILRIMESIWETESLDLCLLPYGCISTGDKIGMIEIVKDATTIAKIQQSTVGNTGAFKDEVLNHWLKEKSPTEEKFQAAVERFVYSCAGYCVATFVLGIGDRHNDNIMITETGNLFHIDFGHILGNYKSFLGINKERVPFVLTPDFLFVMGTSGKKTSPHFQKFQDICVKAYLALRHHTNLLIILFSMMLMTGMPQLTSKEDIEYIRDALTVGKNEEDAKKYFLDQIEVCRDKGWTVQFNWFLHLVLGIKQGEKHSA
Sequence of PIK3CA (human) (P42336 whole entry, looked up): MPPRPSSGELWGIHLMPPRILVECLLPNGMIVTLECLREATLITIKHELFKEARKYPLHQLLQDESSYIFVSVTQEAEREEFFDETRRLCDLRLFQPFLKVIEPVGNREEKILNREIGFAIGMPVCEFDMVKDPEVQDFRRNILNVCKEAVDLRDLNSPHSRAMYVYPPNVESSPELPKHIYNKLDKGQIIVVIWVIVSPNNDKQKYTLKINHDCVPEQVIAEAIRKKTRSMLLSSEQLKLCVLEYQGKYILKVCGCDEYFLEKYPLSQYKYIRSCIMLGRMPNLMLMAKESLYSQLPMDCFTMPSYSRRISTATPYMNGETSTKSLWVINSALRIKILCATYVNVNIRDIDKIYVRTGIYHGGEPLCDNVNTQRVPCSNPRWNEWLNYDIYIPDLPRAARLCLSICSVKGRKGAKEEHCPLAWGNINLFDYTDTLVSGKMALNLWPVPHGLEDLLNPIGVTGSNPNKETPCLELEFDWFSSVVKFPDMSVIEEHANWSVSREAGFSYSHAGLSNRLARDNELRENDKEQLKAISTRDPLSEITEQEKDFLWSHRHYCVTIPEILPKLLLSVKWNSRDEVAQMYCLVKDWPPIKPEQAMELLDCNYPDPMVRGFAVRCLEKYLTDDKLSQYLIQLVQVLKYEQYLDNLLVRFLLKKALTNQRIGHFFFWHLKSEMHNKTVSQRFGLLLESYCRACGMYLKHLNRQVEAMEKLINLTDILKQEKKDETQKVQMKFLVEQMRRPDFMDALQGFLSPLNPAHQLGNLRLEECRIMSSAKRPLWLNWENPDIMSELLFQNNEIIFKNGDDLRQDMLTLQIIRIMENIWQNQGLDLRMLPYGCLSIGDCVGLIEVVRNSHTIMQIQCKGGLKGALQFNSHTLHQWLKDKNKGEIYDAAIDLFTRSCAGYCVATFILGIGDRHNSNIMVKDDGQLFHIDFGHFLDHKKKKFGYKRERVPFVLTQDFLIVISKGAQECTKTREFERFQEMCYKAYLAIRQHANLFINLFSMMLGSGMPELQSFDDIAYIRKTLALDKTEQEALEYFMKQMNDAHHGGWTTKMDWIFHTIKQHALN

Nc1ncc(-c2nc(N3CCOCC3)nc3c2cnn3C2CCOCC2)cn1
< 1000 nM: all assays above

CC(C)(O)Cn1ncc2c(-c3cnc(N)nc3)nc(N3CCOCC3)nc21
< 1000 nM: all assays above

CN1CCN(C(=O)N2CCC(n3ncc4c(-c5cnc(N)nc5)nc(N5CCOCC5)nc43)CC2)CC1
< 1000 nM: all assays above

— the Kinase Knowledgebase extract (Sharma et al. 2016)
